According to ChEMBL document CHEMBL1201862, “PubChem BioAssay data set” (2004):
Several values for one entry are separate records, joined by “and”; a condition that tells them apart may be missing. Identical values can stand only once.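 Five compound concentrations were applied to cells in 96-well plates for 48 hours; endpoints were derived by simple linear interpolation of the resulting dose-response curve. At the GI50, growth is halved.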 Activity calls are given as the source filed them. No stated cut-off is given here; in the data, active = GI50 up to about 1.1 µM and inactive = higher.

What was measured:
Test in all cases: growth of human tumour cells (NCI), 48 h
SW-620 = tested on: SW-620
SN12C = tested on: SN12C
KM12 = tested on: KM12
ACHN = tested on: ACHN
OVCAR-5 = tested on: OVCAR-5
A549 = tested on: A549
NCI-H226 = tested on: NCI-H226
LOX IMVI = tested on: LOX IMVI
OVCAR-8 = tested on: OVCAR-8
RXF 393 = tested on: RXF 393
OVCAR-3 = tested on: OVCAR-3
UACC-257 = tested on: UACC-257
Malme-3M = tested on: Malme-3M
Hs-578T = tested on: Hs-578T
NCI-H460 = tested on: NCI-H460
DU-145 = tested on: DU-145
HOP-62 = tested on: HOP-62
SF-295 = tested on: SF-295
HCT-15 = tested on: HCT-15
HCC 2998 = tested on: HCC 2998

SMILES	GI50 (SW-620)	GI50 (SN12C)	GI50 (KM12)	GI50 (ACHN)	GI50 (OVCAR-5)	GI50 (A549)	GI50 (NCI-H226)	GI50 (LOX IMVI)	GI50 (OVCAR-8)	GI50 (RXF 393)	GI50 (OVCAR-3)	GI50 (UACC-257)	GI50 (Malme-3M)	GI50 (Hs-578T)	GI50 (NCI-H460)	GI50 (DU-145)	GI50 (HOP-62)	GI50 (SF-295)	GI50 (HCT-15)	GI50 (HCC 2998)
O=C(O)CSc1ccn(Cc2ccccc2)c1	> 100 µM (inactive)	> 100 µM (inactive)	> 100 µM (inactive)	> 100 µM (inactive)	> 100 µM (inactive)	> 100 µM (inactive)	> 100 µM (inactive)	> 100 µM (inactive)	> 100 µM (inactive)	> 100 µM (inactive)	> 100 µM (inactive)	> 100 µM (inactive)	> 100 µM (inactive)	> 100 µM (inactive)	> 100 µM (inactive)	> 100 µM (inactive)	> 100 µM (inactive)	> 100 µM (inactive)	> 100 µM	–
Cc1nc2cc(Cl)c(N)cc2[nH]1	> 100 µM (inactive)	> 100 µM (inactive)	> 100 µM (inactive)	> 100 µM (inactive)	> 100 µM (inactive)	> 100 µM (inactive)	> 100 µM (inactive)	> 100 µM (inactive)	> 100 µM (inactive)	–	> 100 µM (inactive)	> 100 µM (inactive)	> 100 µM (inactive)	> 100 µM (inactive)	> 100 µM (inactive)	> 100 µM (inactive)	> 100 µM (inactive)	> 100 µM (inactive)	> 100 µM	> 10 µM (inactive)
Clc1ccc(Nc2ncco2)cc1Cl	> 10 µM (inactive)	> 10 µM (inactive)	> 10 µM (inactive)	> 10 µM (inactive)	> 10 µM (inactive)	> 10 µM (inactive)	> 10 µM (inactive)	> 10 µM (inactive)	> 10 µM (inactive)	–	> 10 µM (inactive)	> 10 µM (inactive)	> 10 µM (inactive)	> 10 µM (inactive)	> 10 µM (inactive)	> 10 µM (inactive)	> 10 µM (inactive)	> 10 µM (inactive)	> 10 µM	> 10 µM (inactive)
CC(C)C(Nc1ncnc2nc[nH]c12)C(=O)O (centres undefined)	> 100 µM (inactive)	> 100 µM (inactive)	> 100 µM (inactive)	> 100 µM (inactive)	> 100 µM (inactive)	> 100 µM (inactive)	> 100 µM (inactive)	> 100 µM (inactive)	> 100 µM (inactive)	> 100 µM (inactive)	> 100 µM (inactive)	> 100 µM (inactive)	> 100 µM (inactive)	> 100 µM (inactive)	> 100 µM (inactive)	> 100 µM (inactive)	> 100 µM (inactive)	> 100 µM (inactive)	> 100 µM	–
C=CCn1c(-c2cc(C(C)(C)C)c(O)c(C(C)(C)C)c2)cs/c1=N\C(P(=O)(O)O)P(=O)(O)O	> 100 µM (inactive)	> 100 µM (inactive)	83 µM (inactive)	> 100 µM (inactive)	> 100 µM (inactive)	> 100 µM (inactive)	> 100 µM (inactive)	–	> 100 µM (inactive)	–	> 100 µM (inactive)	–	> 100 µM (inactive)	> 100 µM (inactive)	> 100 µM (inactive)	> 100 µM (inactive)	> 100 µM (inactive)	> 100 µM (inactive)	> 100 µM	> 100 µM (inactive)
CCNC(=O)CCC(C)[C@H]1CCC2C3C(C[C@H](OC(C)=O)[C@@]21C)[C@@]1(C)CCC2(C[C@H]1C[C@H]3OC(C)=O)OOC1(CCC(C)CC1)OO2 (some centres undefined)	4.6 µM (inactive) and 2.74 µM (inactive)	2.52 µM (inactive) and 1.83 µM (inactive)	1.64 µM (inactive) and 1.57 µM (inactive)	1.55 µM (inactive) and 1.63 µM (inactive)	2.7 µM (inactive) and 1.82 µM (inactive)	1.5 µM (inactive) and 1.49 µM (inactive)	1.52 µM (inactive) and 1.69 µM (inactive)	1.83 µM (inactive) and 2.05 µM (inactive)	2.61 µM (inactive) and 1.51 µM (inactive)	–	1.55 µM (inactive) and 1.59 µM (inactive)	4.63 µM (inactive) and 2.62 µM (inactive)	2.23 µM (inactive) and 1.6 µM (inactive)	2.62 µM (inactive) and 2.68 µM (inactive)	2.39 µM (inactive) and 1.75 µM (inactive)	1.73 µM (inactive) and 2.37 µM (inactive)	689 nM (active) and 1.31 µM (inactive)	3.82 µM (inactive) and 2 µM (inactive)	1.99 µM and 2 µM	1.75 µM (inactive) and 3.1 µM (inactive)
Cc1c2c(n(CCc3ccccc3)c1C)NN=C(C#N)S2(=O)=O	> 100 µM (inactive)	> 100 µM (inactive)	> 100 µM (inactive)	> 100 µM (inactive)	> 100 µM (inactive)	> 100 µM (inactive)	–	> 100 µM (inactive)	> 100 µM (inactive)	–	> 100 µM (inactive)	> 100 µM (inactive)	> 100 µM (inactive)	> 100 µM (inactive)	> 100 µM (inactive)	> 100 µM (inactive)	> 100 µM (inactive)	–	> 100 µM	> 100 µM (inactive)
